Read-outs that look alike come from different tables or passages of the source.
How the values were obtained:
[1] = Oxidation-reduction potential by Square Wave Voltammetry (SWVA); format: physicochemical; details: for Wave Height, I, mA / E, mV vs. Ag/AgCl: SWVA; for E, mV vs. Ag/AgCl: absence of atmospheric oxygen
Protocol: The compatibility of H2O2 and the protein/surfactant system was assessed using two approaches. […] Second, H2O2 concentration was determined over various time periods, up to one year, in the mixtures of hydrogen peroxide and protein/surfactant mixture, by volumetric titration with standardized permanganate solution. ORP measurements were conducted using Square Wave Voltammetry (SWVA) in a glove box, in the absence of atmospheric oxygen. Solutions 27% and 15% H2O2 with and without addition of 5% protein/surfactant were taken for these experiments.

[2] = system: E. Coli; details: for E. Coli Sample (CFU/mL): 5% Horse serum
Protocol: (§1) The following tests were run with PS-2 at a 4% concentration (0.72% total surfactant), H2O2 at 3% and phosphoric acid at <0.1% to pH 2.9, Versene (EDTA) at 0.1%. Test methodology was Suspension Based, Quantitative Time-Kill at 22° C., but with 5% Horse serum added to show the effects of organic contaminant on antimicrobial activity. A control of 3% H2O2 was run in this example.

[3] = system: S. aureus; details: for S. aureus Sample (CFU/mL): 5% Horse serum
Protocol: as §1

[4] = exposure time of up to 10 minutes, organic contamination

For OO [Composition H2O2, hydrogen peroxide], the “Potential (apex of current wave)” value ([1]; NHE) was “about 1.8 V” and the “Potential (apex of current wave)” value ([1]; against saturated silver/silver chloride electrode) was “about 1.6 V”.

In the case of OO [Control, 3% H2O2, hydrogen peroxide], the “E. Coli Sample (CFU/mL)” value ([2]; 1 min) is reported as 1.71E+07 CFU/mL, the “E. Coli Sample (CFU/mL)” value ([2]; 5 min) is reported as 6.80E+06 CFU/mL and the “E. Coli Sample (CFU/mL)” value ([2]; 10 min) is reported as 1.36E+06 CFU/mL. For the same molecule, the “E. Coli Sample (CFU/mL)” value ([2]; "Time Zero") was 1.99E+07 CFU/mL, the “log reduction, gram negative pathogen (E. Coli)” value [2, 4] was 1 log and the “S. aureus Sample (CFU/mL)” value ([3]; 1 min) was 1.20E+07 CFU/mL. For the same molecule, the “S. aureus Sample (CFU/mL)” value ([3]; 5 min) was 8.80E+06 CFU/mL, the “S. aureus Sample (CFU/mL)” value ([3]; 10 min) was 3.86E+06 CFU/mL and the “S. aureus Sample (CFU/mL)” value ([3]; "Time Zero") was 1.04E+07 CFU/mL. For the same molecule, the “log reduction, gram positive pathogen (S. aureus)” value [3, 4] was 1 log.

With OO [H2O2, 15%, hydrogen peroxide] the “Wave Height, I, mA” value [1] was 85 mA and the “E, mV vs. Ag/AgCl” value [1] was 1,550 mV.

With OO [H2O2, 27%, hydrogen peroxide] the “Wave Height, I, mA” value [1] was 92 mA, the “E, mV vs. Ag/AgCl” value [1] was 1,600 mV and the “Wave Height, I, mA” value ([1]; listed as pure H2O2) was “about 92 mA”.
